Measurements from ChEMBL document CHEMBL1201862, “PubChem BioAssay data set” (2004).
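Following 48 hours of exposure in 96-well plates, responses at five concentrations were used to interpolate endpoints linearly. Abbreviation: GI50, concentration required for 50% inhibition of growth.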 Activity calls are given as the source filed them. No stated cut-off is given here; in the data, active = GI50 up to about 1.1 µM and inactive = higher.

Legend:
Experiment in all cases: NCI tumour cell line growth inhibition, 48 h
A549 = test system: A549
CAKI-1 = test system: CAKI-1
HCC 2998 = test system: HCC 2998
HOP-62 = test system: HOP-62
HOP-92 = test system: HOP-92
HT-29 = test system: HT-29
KM12 = test system: KM12
MCF7 = test system: MCF7
MOLT-4 = test system: MOLT-4
Malme-3M = test system: Malme-3M
NCI-H226 = test system: NCI-H226
NCI-H23 = test system: NCI-H23
NCI-H522 = test system: NCI-H522
SK-MEL-28 = test system: SK-MEL-28
SK-OV-3 = test system: SK-OV-3
SN12C = test system: SN12C
SNB-78 = test system: SNB-78
SW-620 = test system: SW-620
UACC-62 = test system: UACC-62
TK-10 = test system: TK-10

Measured: GI50

O=[N+]([O-])c1cc(C(F)(F)F)cc2c1SC1=Nc3ccccc3CN12
inactive: A549 > 100 µM | CAKI-1 > 100 µM | HCC 2998 > 100 µM | HOP-62 > 100 µM | HOP-92 > 100 µM | HT-29 > 100 µM | KM12 > 100 µM | MCF7 > 100 µM | MOLT-4 > 100 µM | Malme-3M > 100 µM | NCI-H226 > 100 µM | NCI-H23 > 100 µM | NCI-H522 > 100 µM | SK-MEL-28 > 100 µM | SK-OV-3 > 100 µM | SN12C > 100 µM | SNB-78 > 100 µM | SW-620 > 100 µM | UACC-62 > 100 µM

CCOC(=O)c1cc(Cl)ccc1OC(N)=O
inactive: A549 > 100 µM | CAKI-1 > 100 µM | HCC 2998 > 100 µM | HOP-62 > 100 µM | HOP-92 > 100 µM | HT-29 > 100 µM | KM12 > 100 µM | MCF7 > 100 µM | MOLT-4 > 100 µM | NCI-H226 > 100 µM | NCI-H23 > 100 µM | SK-MEL-28 > 100 µM | SK-OV-3 > 100 µM | SN12C > 100 µM | SNB-78 > 100 µM | SW-620 > 100 µM | UACC-62 > 100 µM

CC[C@@H]1ON(C)[C@H]2CN(C)C(=O)[C@@H]12
inactive: A549 > 100 µM | CAKI-1 > 100 µM | HCC 2998 > 100 µM | HOP-62 > 100 µM | HOP-92 > 100 µM | HT-29 > 100 µM | MCF7 > 100 µM | MOLT-4 > 100 µM | NCI-H226 > 100 µM | NCI-H23 > 100 µM | NCI-H522 > 100 µM | SK-MEL-28 > 100 µM | SK-OV-3 > 100 µM | SN12C > 100 µM | SW-620 > 100 µM | TK-10 > 100 µM

COCOc1ccc(OC)cc1
inactive: A549 > 100 µM | CAKI-1 > 100 µM | HCC 2998 > 100 µM | HOP-62 > 100 µM | HOP-92 > 100 µM | HT-29 > 100 µM | KM12 > 100 µM | MCF7 > 100 µM | MOLT-4 > 100 µM | Malme-3M > 100 µM | NCI-H226 > 100 µM | NCI-H23 > 100 µM | SK-MEL-28 > 100 µM | SK-OV-3 > 100 µM | SN12C > 100 µM | SNB-78 > 100 µM | SW-620 > 100 µM | UACC-62 > 100 µM

N#Cc1ccc([N+](=O)[O-])cc1NC(N)=S
inactive: A549 > 100 µM | CAKI-1 > 100 µM | HCC 2998 > 100 µM | HOP-62 > 100 µM | HOP-92 > 100 µM | HT-29 > 100 µM | KM12 > 100 µM | MOLT-4 > 100 µM | Malme-3M > 100 µM | NCI-H522 > 100 µM | SK-MEL-28 > 100 µM | SK-OV-3 > 100 µM | SN12C > 100 µM | SNB-78 > 100 µM | SW-620 > 100 µM

CC1CCN(c2cc(-c3cc4ccccc4o3)oc(=O)c2C#N)CC1
inactive: A549 > 100 µM | CAKI-1 19.9 µM | HCC 2998 > 100 µM | HOP-92 5.9 µM | HT-29 > 100 µM | KM12 > 100 µM | MOLT-4 > 100 µM | Malme-3M > 100 µM | NCI-H226 > 100 µM | NCI-H23 > 100 µM | SK-MEL-28 > 100 µM | SN12C > 100 µM | SNB-78 > 10 µM | SW-620 > 100 µM | TK-10 > 100 µM
